Results taken from paper PMC11285977, “Identification of drug-like molecules targeting the ATPase activity of dynamin-like EHD4” (PLOS ONE, 2024).
Where two headings read alike, the source gives them in different places.

Legend:
DNM1L = molecular target: T1, DNM1L (Homo sapiens, UniProt O00429); test: MLG-based stimulated GTPase assay of DNM1L (counter-screen); format: biochemical; conditions: 300 nM DNM1L, 40 μM GTP, 25°C; inhibitor 0.125 μM to 50 μM (IC50 curve) or 10 μM (time course)
T1 construct: human DNM1L isoform 2 (UniProtID: O00429-3, residues 1–710); made in house
Description: Fig 5 Biochemical characterization of the primary hits. A One-hour time course of the MLG-based enzymatic ATPase assay in the presence of 50 μM inhibitor. EHD4^ΔN (blue curve) represents the positive control. B Primary hits were validated at 50 μM inhibitor concentration in an HPLC setup to exclude assay bias. ATPase assays done in A and B were in standard conditions. C Primary hits were tested against EHD2. Only MS8 had no effect on EHD2 ATPase activity. ATPase assay was done at an EHD2 concentration of 5 μM in the presence of 500 μg/ml Folch liposomes and 50 μM ATP in assay buffer at 30°C. D Changes in melting temperature of 5 μM EHD4^ΔN were studied in the presence of 50 μM inhibitor by thermal shift assay. MS1 and MS10 destabilized the protein, as evident by negative ΔTm, whereas MS8 had no effect on the stability of EHD4^ΔN. […] Shown is an IC50 curve plotted with an inhibitor concentration range from 0.125 μM to 50 μM. F MS8 substructure obtained by dissecting the diphenlyether bond. This substructure was used in our chemical search to have the highest diversity of the chemical space and the optimal coverage of chemical vectors to gain a structure-activity relationship.Data points represents the mean of two or more independent experiments and the error bar signifies the range or standard deviation. […] TEXT PRINTED IN THE PICTURE: (D) EHD4^ΔN: Tm = 44.5 °C DOUBTS OF THE COPYIST ABOUT THIS PICTURE: Panel D: 'EHD4^ΔN Tm = 44.5 °C' is the only printed result. It refers to the protein itself (reference melting temperature), not to one of the inhibitors MS1, MS8 or MS10, so it may not count as a result for a substance.
Supplementary file pone.0302704.s004.tif: S4 Fig DNM1L and EHD2 enzymatic assay. A EHD2 ATPase activity by an HPLC-based method. Assay conditions were 5 μM EHD2, 50 μM ATP and 1 mg/ml Folch liposomes at 30°C. […] C Km was determined by first calculating the amount of hydrolyzed GTP in (B) using the standard curve reported in S2C Fig and then plotting the initial rates of the reactions versus the substrate concentration. […]

EHD2 = molecular target: T2, EHD2 (Mus musculus, UniProt Q8BH64); test: HPLC-based EHD2 ATPase assay; format: biochemical; conditions: 5 μM EHD2, 500 μg/ml Folch liposomes, 50 μM ATP, 30°C
T2 construct: Mouse EHD2 (Uniprot Q8BH64, residues 1–543); made in house
T2 sequence (Q8BH64 1-543): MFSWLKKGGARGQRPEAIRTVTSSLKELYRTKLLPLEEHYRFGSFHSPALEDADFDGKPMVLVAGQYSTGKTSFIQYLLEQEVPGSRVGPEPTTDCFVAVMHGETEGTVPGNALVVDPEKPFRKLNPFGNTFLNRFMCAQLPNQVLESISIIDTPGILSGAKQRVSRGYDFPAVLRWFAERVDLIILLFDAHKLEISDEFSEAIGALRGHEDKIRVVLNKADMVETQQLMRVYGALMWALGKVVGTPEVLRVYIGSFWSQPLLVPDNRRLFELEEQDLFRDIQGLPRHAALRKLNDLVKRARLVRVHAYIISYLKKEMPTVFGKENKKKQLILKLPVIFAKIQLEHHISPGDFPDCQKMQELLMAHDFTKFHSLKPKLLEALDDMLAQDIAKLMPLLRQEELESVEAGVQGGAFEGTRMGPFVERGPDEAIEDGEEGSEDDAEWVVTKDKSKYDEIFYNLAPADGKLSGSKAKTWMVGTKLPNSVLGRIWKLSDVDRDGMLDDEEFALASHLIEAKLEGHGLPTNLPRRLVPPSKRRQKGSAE
Description: ATPase assay was performed as mentioned above and at defined time points, reaction aliquots were diluted three times in reaction buffer (50 mM Tris, 150 mM NaCl, pH 7.5) and quickly flash frozen in liquid nitrogen. Samples were applied to an HPLC and nucleotides were separated with reversed phase column (C18 100*4.6 mm) equilibrated with running buffer containing 100 mM potassium phosphate buffer pH 6.5, 10 mM tetrabutylammonium bromide, 7.5% (v/v) acetonitrile. Adenine nucleotides were detected by absorption at 254 nm and quantified by integrating the corresponding nucleotide peaks and determining the ADP/ATP ratios.
Fig 5 Biochemical characterization of the primary hits. A One-hour time course of the MLG-based enzymatic ATPase assay in the presence of 50 μM inhibitor. EHD4^ΔN (blue curve) represents the positive control. B Primary hits were validated at 50 μM inhibitor concentration in an HPLC setup to exclude assay bias. ATPase assays done in A and B were in standard conditions. C Primary hits were tested against EHD2. Only MS8 had no effect on EHD2 ATPase activity. ATPase assay was done at an EHD2 concentration of 5 μM in the presence of 500 μg/ml Folch liposomes and 50 μM ATP in assay buffer at 30°C. D Changes in melting temperature of 5 μM EHD4^ΔN were studied in the presence of 50 μM inhibitor by thermal shift assay. MS1 and MS10 destabilized the protein, as evident by negative ΔTm, whereas MS8 had no effect on the stability of EHD4^ΔN. […] Shown is an IC50 curve plotted with an inhibitor concentration range from 0.125 μM to 50 μM. F MS8 substructure obtained by dissecting the diphenlyether bond. […]
Supplementary file pone.0302704.s004.tif: S4 Fig DNM1L and EHD2 enzymatic assay. […] B Initial velocities of DNM1L GTPase activity at 300 nM DNM1L, and, 500 μg/ml synthetic DOPS, T = 25°C and at different GTP concentrations were determined by a linear fit. C Km was determined by first calculating the amount of hydrolyzed GTP in (B) using the standard curve reported in S2C Fig and then plotting the initial rates of the reactions versus the substrate concentration. […]

EHD4^ΔN [1] = molecular target: T3, EHD4^ΔN (Mus musculus, UniProt Q9EQP2); test: Thermal shift assay (TSA); format: binding; conditions: 5 μM EHD4ΔN, 50 μM inhibitor
T3 construct: mouse EHD4 (Uniprot Q1MWP8, residues 22–541, EHD4^ΔN); His6 followed by PreScission cleavage site (N, cleaved yes); made in house; host or cells: E. coli BL21 DE3 Rosetta
T3 sequence (Q9EQP2 22-541): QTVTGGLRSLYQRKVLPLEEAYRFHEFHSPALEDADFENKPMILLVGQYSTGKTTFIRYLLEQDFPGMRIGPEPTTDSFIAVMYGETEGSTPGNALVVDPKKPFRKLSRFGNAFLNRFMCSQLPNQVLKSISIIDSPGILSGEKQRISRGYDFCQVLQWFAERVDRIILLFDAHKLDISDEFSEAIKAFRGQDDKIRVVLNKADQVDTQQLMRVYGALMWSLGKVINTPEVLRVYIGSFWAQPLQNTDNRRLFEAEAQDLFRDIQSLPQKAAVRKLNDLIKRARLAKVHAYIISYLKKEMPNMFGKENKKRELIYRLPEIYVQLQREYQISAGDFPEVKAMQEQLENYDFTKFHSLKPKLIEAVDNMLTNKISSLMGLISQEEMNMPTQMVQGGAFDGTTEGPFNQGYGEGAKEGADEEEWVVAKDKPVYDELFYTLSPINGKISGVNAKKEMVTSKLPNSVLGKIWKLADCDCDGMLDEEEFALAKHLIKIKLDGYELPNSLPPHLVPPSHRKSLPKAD
Description: TSA was done in a CFX96 touch-real time PCR using a fluorescent dye from ThermoFisher Scientific (catalogue number 4461146). Reactions (5 μM EHD4^ΔN, 50 μM inhibitor and 1X dye) were prepared on ice, to a final volume of 50 μl and transferred to a 96 well PCR plate and then sealed with a plastic film. CFX96 was precooled to 4°C and the PCR plate was inserted. The fluorescence was measured from 4°C to 80°C with 0.5°C temperature steps. Protein melting temperature was calculated with the provided software (Bio-Rad) and plotted as bar diagram using GraphPad Prism 7.05.

EHD4^ΔN [2] = molecular target: T3, EHD4^ΔN; test: Malachite green (MLG)-based liposome-stimulated ATPase assay of EHD4ΔN; format: biochemical; conditions: read-out: IC50, EHD4ΔN ATPase inhibition
Description: ATPase assays were performed in a 384 well plate at 25°C (if not otherwise indicated). The assay buffer contained 20 mM HEPES, 150 mM KCl, 0.5 mM MgCl2, pH 7.5. 30 μM of ATP was mixed with 50 μg/ml DOPS in assay buffer. Reaction was started by adding 200 nM EHD4^ΔN. At any given time-point, 25 μl of the reaction was taken out and mixed with 75 μl of the dye in a 384 well plate. The reaction gets quenched by the addition of the dye which denatures the protein. Absorbance at 650 nm was measured in a plate reader (Tecan, Infinite M200).
Screening was conducted at the Screening Unit of the Leibniz-Forschungsinstitut für Molekulare Pharmakologie (FMP) using a kinase drug library and the ‘diversity set’. 15,840 compounds were tested as singlets in 384 well plate format. A master mix (MM) was prepared in the assay buffer to have a final ATP concentration of 30 μM and DOPS concentration of 50 μg/ml. A 10 mM DMSO solution of the compounds was serially diluted, first with DMSO and then with the MM to a final concentration of 10 μM (1% of DMSO), using the Tecan-Evo workstation (pipetting robot). EHD4^ΔN (200 nM) was pipetted using multi-drop dispensing cassette. To have homogenous enzymatic activity, the plates were vortexed using a microplate mixer at 2,000 rpm for 10 s. The plates were incubated for 15 min at room temperature and 75 μl of MLG dye added with the cassette. The plates were measured in a Perkin Elmer Envision plate reader.
Data were analyzed with an automated pipeline using KNIME software. For the individual plates, the corresponding Z´ values and SNR were calculated. Compared to the control´s absorbance at 650 nm (Abs650), compounds were classified as inhibitors if the %Abs650 was ≤ 25%. These hits were picked from the drug library and used for further validation of IC50 determination and counter screening. IC50 values were determined in the same setup with varying inhibitor concentrations from 0.125 μM to 50 μM.

[3] = compounds picked from the drug library, duplicates, inhibitor 0.125 μM to 50 μM, 200 nM EHD4ΔN, 30 μM ATP, 50 μg/ml DOPS

T1 sequence (O00429 1-710 isoform O00429-3): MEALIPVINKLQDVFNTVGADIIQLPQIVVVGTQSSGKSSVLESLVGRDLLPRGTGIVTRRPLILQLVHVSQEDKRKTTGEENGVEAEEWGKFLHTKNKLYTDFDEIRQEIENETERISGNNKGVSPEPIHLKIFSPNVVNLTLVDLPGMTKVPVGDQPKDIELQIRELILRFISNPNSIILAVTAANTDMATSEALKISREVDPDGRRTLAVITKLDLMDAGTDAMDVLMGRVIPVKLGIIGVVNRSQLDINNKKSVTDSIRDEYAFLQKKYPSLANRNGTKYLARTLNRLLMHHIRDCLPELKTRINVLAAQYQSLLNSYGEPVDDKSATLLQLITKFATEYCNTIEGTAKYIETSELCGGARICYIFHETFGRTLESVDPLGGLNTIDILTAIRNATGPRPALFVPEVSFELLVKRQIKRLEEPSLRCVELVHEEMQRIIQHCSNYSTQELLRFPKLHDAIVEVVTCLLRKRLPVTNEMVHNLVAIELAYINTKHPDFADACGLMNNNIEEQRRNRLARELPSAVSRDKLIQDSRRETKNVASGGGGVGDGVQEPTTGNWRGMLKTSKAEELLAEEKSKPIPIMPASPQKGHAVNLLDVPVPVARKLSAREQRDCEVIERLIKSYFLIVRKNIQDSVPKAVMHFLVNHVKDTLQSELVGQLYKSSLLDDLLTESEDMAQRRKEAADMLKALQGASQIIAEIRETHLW

| Compound | effect on stimulated GTPase activity of DNM1L (DNM1L) | effect on EHD2 enzymatic (ATPase) activity (EHD2) | effect on EHD4ΔN stability (thermal shift) (EHD4^ΔN [1]) | ΔTm at 50 µM (EHD4^ΔN [1]; Tm of protein alone 44.5°C) | IC50 (EHD4^ΔN [2]; [3]) | IC50 (EHD4^ΔN [2]; repurchased compounds) |
| --- | --- | --- | --- | --- | --- | --- |
| O=C(CCCCCn1sc2ccccc2c1=O)Nc1ccccc1O [MS1, N-(2-hydroxyphenyl)-6-(3-oxo-2,3-dihydro-1,2-benzothiazol-2-yl)hexanamide] | did not interfere | inhibited | destabilizing effect | -5 °C | 0.92 µM | 2.4 µM |
| Cc1csc(NC(=O)c2cccc(Oc3ccccc3)c2)n1 [MS8, N-(4-methyl-1,3-thiazol-2-yl)-3-phenoxybenzamide] | did not inhibit | no effect | no such effect | – | 3.8 µM | 4.9 µM |
| Oc1cc2c(cc1C(c1ccc(C(F)(F)F)cc1)N1CCOCC1)OCO2 (stereo not shown) [MS10, 6-(Morpholino(4-(Trifluormethyl)phenyl)methyl)-1,3-Benzodioxol-5-ol] | did not interfere | inhibited | diminished EHD4^ΔN stability | – | 2.9 µM | 4.8 µM |
